Consider 22 compounds from patent US5162360A, “2-heteroatom containing urea and thiourea ACAT inhibitors” (Warner-Lambert Company, priority 1991, dated 1992).

Assay [1] is described as follows: APCC in vivo screen: blood cholesterol in cholesterol-fed rats. Also on record: species or system male Sprague-Dawley rats. The settings on record: Rattus norvegicus, 192 h, oral, chow diet with peanut oil 5.5%, cholesterol 1.5%, cholic acid 0.5%, blood sampled next day 8 AM, read-out: % Change (mg/dl). The protocol: In one in vivo screen designated APCC, male Sprague-Dawley rats (200 to 225 g) were randomly divided into treatment groups and dosed orally at 4 PM with either vehicle (CMC/Tween) or suspensions of test compounds in vehicle. The control group received vehicle alone. […] The next day the animals were sacrificed at 8 AM to obtain blood samples for cholesterol analysis using standard procedures. Statistical differences between mean cholesterol values for the same vehicle were determined using analysis of variance followed by Fisher's least significant test. […] The figure in parenthesis indicates the number of milligrams/kilogram of test compound administered.

The target in assay [2] is T1, acyl-coenzyme A:cholesterol acyltransferase (ACAT) (Oryctolagus cuniculus, UniProt G1SFD9).
T1 sequence (G1SFD9 1-524): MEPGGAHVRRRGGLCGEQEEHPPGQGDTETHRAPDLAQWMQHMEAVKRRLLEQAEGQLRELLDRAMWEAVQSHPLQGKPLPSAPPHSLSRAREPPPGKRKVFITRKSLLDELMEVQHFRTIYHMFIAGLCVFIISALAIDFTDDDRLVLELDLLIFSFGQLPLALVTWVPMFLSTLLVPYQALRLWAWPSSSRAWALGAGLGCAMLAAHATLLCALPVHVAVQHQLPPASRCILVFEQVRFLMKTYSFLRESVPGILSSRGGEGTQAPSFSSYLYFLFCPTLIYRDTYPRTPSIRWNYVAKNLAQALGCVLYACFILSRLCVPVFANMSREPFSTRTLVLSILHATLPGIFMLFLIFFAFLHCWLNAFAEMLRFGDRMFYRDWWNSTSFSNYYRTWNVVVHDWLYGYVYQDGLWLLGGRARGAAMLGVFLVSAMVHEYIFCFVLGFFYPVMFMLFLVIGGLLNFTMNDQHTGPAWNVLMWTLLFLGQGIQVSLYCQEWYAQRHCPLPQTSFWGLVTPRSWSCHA
Kind of assay: In vitro ACAT inhibition (radiolabeled cholesterol oleate formation from oleic acid, rabbit intestinal microsomes). It is filed as biochemical.
Procedure: The ability of representative compounds of the present invention to inhibit ACAT was measured using an in vitro test more fully described by F. J. Field and R. G. Salone, in Biochemica et Biophysica 712:557-570 (1982). The test assesses the ability of a test compound to inhibit the acylation of cholesterol by oleic acid by measuring the amount of radio-labeled cholesterol oleate formed from radiolabeled oleic acid in a tissue preparation containing rabbit intestinal microsomes.

Regarding `CCCCCCCCCCc1sc(NC(=O)Nc2c(C(C)C)cccc2C(C)C)nc1C` [Example 1, N-[2,6-bis(1-methylethyl)phenyl]-N'-(5-decyl-4-methyl-2-thiazolyl)urea], the change in vivo at 30 mg/kg in assay [1] was -20%.
One may read the IC50 as the midpoint of a concentration-inhibition curve. A high value points to lower potency. For `CCCCCc1sc(NC(=O)Nc2c(C(C)C)cccc2C(C)C)nc1C` [Example 3, N-[2,6-bis(1-methylethyl)phenyl]-N-(5-pentyl-4-methyl-2-thiazolyl)urea], the change in vivo at 30 mg/kg in assay [1] was -17%. For the same compound, the IC50 in assay [2] was found to be 1900 nM.
In the same order, the values of `CCCCCCc1csc(NC(=O)Nc2c(C(C)C)cccc2C(C)C)n1` [Example 4, N-[2,6-bis(1-methylethyl)phenyl]-N'-(4-hexyl-2-thiazolyl)urea] are 4% and 1600 nM.
As for `CC(C)c1cccc(C(C)C)c1NC(=O)Nc1nc(-c2ccccc2)cs1` [Example 5, N-[2,6-bis(1-methylethyl)phenyl]-N'-(4-phenyl-2-thiazolyl)urea], in assay [2], the IC50 is > 5000 nM.
The same measure, in the same setting: the figure for `Cc1csc(NC(=O)Nc2c(C(C)C)cccc2C(C)C)n1` [Example 6, N-[2,6-bis(1-methylethyl)phenyl]-N'-(4-methyl-2-thiazolyl)urea] is > 5000 nM; for `CC(C)c1cccc(C(C)C)c1NC(=O)Nc1nc(C(C)(C)C)cs1` [Example 7, N-[2,6-bis(1-methylethyl)phenyl]-N'-(4-tert-butyl-2-thiazolyl)urea] it is > 1000 nM.
With `CCCCCCCCCCCCc1cc(NC(=O)Nc2c(C(C)C)cccc2C(C)C)on1` [Example 8, N-[2,6-bis(1-methylethyl)phenyl]-N'-(3-dodecyl-5-isoxazolyl)urea], in assay [1], the change in vivo at 3 mg/kg was -58% and the change in vivo at 30 mg/kg was -61%.
With `CCCCCCCCCCCCc1cc(NC(=O)Nc2c(C(C)C)cccc2C(C)C)no1` [Example 9, N-[2,6-bis(1-methylethyl)phenyl]-N'-(5-dodecyl-3-isoxazolyl)urea], in assay [1], the change in vivo at 3 mg/kg was -54% and the change in vivo at 30 mg/kg was -67%. In assay [2], the IC50 is 27 nM.
As to `CCCCCCCCCCc1cc(NC(=O)Nc2c(C(C)C)cccc2C(C)C)on1` [Example 10, N-[2,6-bis(1-methylethyl)phenyl]-N'-(3-decyl-5-isoxazolyl)urea], in assay [1], the change in vivo at 3 mg/kg is -61% and the change in vivo at 30 mg/kg is -69%.
Regarding `CCCCCCCCCCCc1cc(NC(=O)Nc2c(C(C)C)cccc2C(C)C)on1` [Example 11, N-[2,6-bis(1-methylethyl)phenyl]-N'-(3-undecyl-5-isoxazolyl)urea], in assay [1], the change in vivo at 3 mg/kg is -67% and the change in vivo at 30 mg/kg was -70%. In assay [2], this compound returned an IC50 of 20 nM.
For `CCCCCCCCCCCCCc1cc(NC(=O)Nc2c(C(C)C)cccc2C(C)C)on1` [Example 12, N-[2,6-bis(1-methylethyl)phenyl]-N'-(3-tridecyl-5-isoxazolyl)urea], in assay [1], the change in vivo at 3 mg/kg is -51% and the change in vivo at 30 mg/kg was -62%.
In the same order, the values of `CCCCCCCCCCCCCCc1cc(NC(=O)Nc2c(C(C)C)cccc2C(C)C)on1` [Example 13, N-[2,6-bis(1-methylethyl)phenyl]-N'-(3-tetradecyl-5-isoxazolyl)urea] are -44% and -64%.
As for `CCCCCCCCCCc1cc(NC(=O)Nc2c(C(C)C)cccc2C(C)C)no1` [Example 14], in assay [1], the change in vivo at 3 mg/kg is -29% and the change in vivo at 30 mg/kg was -62%. Besides, in assay [2], the IC50 is 28 nM.
In the case of `CCCCCCCCCCCc1cc(NC(=O)Nc2c(C(C)C)cccc2C(C)C)no1` [Example 15, N-[2,6-bis(1-methylethyl)phenyl]-N'-(5-undecyl-3-isoxazolyl)urea], in assay [1], the change in vivo at 3 mg/kg is -51% and the change in vivo at 30 mg/kg is -61%. The compound further displayed an IC50 in assay [2] of 27 nM.
`CCCCCCCCCCCCCc1cc(NC(=O)Nc2c(C(C)C)cccc2C(C)C)no1` [Example 16, N-[2,6-bis(1-methylethyl)phenyl]-N'-(5-tridecyl-3-isoxazolyl)urea]: in assay [1], the change in vivo at 3 mg/kg was -59% and the change in vivo at 30 mg/kg was -62%.
For `CCCCCCCCCCCCCCc1cc(NC(=O)Nc2c(C(C)C)cccc2C(C)C)no1` [Example 17, N-[2,6-bis(1-methylethyl)phenyl]-N'-(5-tetradecyl-3-isoxazolyl)urea], in assay [1], the change in vivo at 3 mg/kg is -47% and the change in vivo at 30 mg/kg is -58%. Besides, the IC50 in assay [2] turned out to be 110 nM.
In the case of `Cc1cc(NC(=O)Nc2c(C(C)C)cccc2C(C)C)no1` [Example 18, N-[2,6-bis(1 methylethyl)phenyl]-N'-(5-methyl-3-isoxazolyl)urea], in assay [2], the IC50 is > 5000 nM.
For the compound `CCCCN(CCCC)Cc1cc(NC(=O)Nc2c(C(C)C)cccc2C(C)C)no1` [Example 19, N-[2,6-bis(1-methylethyl)phenyl]-N'-[5-[(dibutylamino)methyl]-3-isoxazolyl]urea], in assay [1], the change in vivo at 3 mg/kg was -33% and the change in vivo at 30 mg/kg is -50%. Besides, inhibition in assay [2] was half-maximal at 510 nM (IC50).
For the compound `CCCCCCN(CCCCCC)Cc1cc(NC(=O)Nc2c(C(C)C)cccc2C(C)C)no1` [Example 20, N-[2,6-bis(1-methylethyl)phenyl]-N'-[5-[(dihexylamino)methyl]-3-isoxazolyl]urea], in assay [1], the change in vivo at 30 mg/kg was -7%. Moreover, the IC50 in assay [2] was 2700 nM.
In the same order, the values of `CCCCN(CCCC)Cc1cc(NC(=O)Nc2c(C(C)C)cccc2C(C)C)n(Cc2ccccc2)n1` [Example 22, N-[2,6-bis(1-methylethyl)phenyl]-N'-[3-[(dibutylamino)methyl]-1-(phenylmethyl)-1H-pyrazol-5-yl]urea] are -9% and 1900 nM.
Take `CCCCCCCCCCCn1nccc1NC(=O)Nc1c(C(C)C)cccc1C(C)C` [Example 23, N-[2,6-bis(1-methylethyl)phenyl]-N'-(1-undecyl-1H-pyrazol-5-yl)urea]: in assay [1], the change in vivo at 3 mg/kg amounted to 5% and the change in vivo at 30 mg/kg is -64%. For the same compound, the IC50 in assay [2] was determined as 35 nM.
Regarding `CCCCCCCCCCCCc1cc(NC(=O)Nc2c(C(C)C)cccc2C(C)C)n(-c2ccccn2)n1` [Example 24, N-[2,6-bis(1-methylethyl)phenyl]-N'-[3-dodecyl-1-(2-pyridyl)-1H-pyrazol-5-yl]urea], in assay [1], the change in vivo at 30 mg/kg worked out at 9%. The compound also registered an IC50 in assay [2] of 100 nM.
